Measurements: patent US20190142993A1, “ULTRA-THIN, HIGH STRENGTH, DRUG-LOADED SUTURES AND COATINGS THEREOF” (The Johns Hopkins University, priority 2016, published 2019)

System: corneas of Sprague-Dawley rats
Conditions: rat, in vivo
Description: For assessment of in vivo biocompatibility, animals were cared for and experiments conducted in accordance with protocols approved by the Animal Care and Use Committee of the Johns Hopkins University. Protocols are also in accordance with the ARVO Statement for the Use of Animals in Ophthalmic and Vision Research. […] Prior to implantation, rats were intraperitoneally anesthetized with a solution of Ketamine:Xylazine (75:5 mg/kg, Sigma Aldrich) and a drop of 0.5% proparacaine hydrochloride ophthalmic solution (Bausch & Lomb Inc., Tampa, Fla.) was applied to the cornea. Following implantation, the rats were evaluated for signs of infection every day for seven days. The rats were then euthanized and eyes enucleated, fixed in formalin (Sigma Aldrich) for 24 h, embedded in paraffin, cross sectioned, and stained with hematoxylin and eosin for histological evaluation.

Substance: nylon
- tissue reaction (histological analysis): no obvious signs of neovascularization or inflammation
